From patent US20170107179A1 (Tetraphase Pharmaceuticals, Inc., priority 2010, published 2017)
≈ marks a conversion by molar mass, not a printed value. Like-named read-outs stand apart in the source and are kept apart here.

Columns and labels:
H. influenzae HI551 = test: Rat lung infection model; format: in vivo; conditions: H. influenzae intratracheal
[1] = system: evaluated pathogens by tetracycline phenotype; test: Broth microdilution MIC by tetracycline phenotype (Table 14)
E. coli DH10B EC970 TetK = test: MIC, E. coli DH10B recombinantly expressing tetracycline-resistance gene; conditions: arabinose-induced, ampicillin in medium
[2] = system: Gram-negative respiratory pathogens; test: Broth microdilution MIC, respiratory pathogens; format: cell-based; conditions: generally
[3] = system: Gram-negative and Gram-positive organisms (clinical isolates); test: Broth microdilution MIC against clinical isolates (CLSI M7-A8), Table 9; format: cell-based
[4] = Enterococcus faecium, E. faecium, TET NS, N=40
[5] = Enterococcus faecium, E. faecium, TET S, N=60
[6] = Streptococcus agalactiae, S. agalactiae, TET NS, N=39
[7] = Streptococcus agalactiae, S. agalactiae, TET S, N=11
[8] = Streptococcus pneumoniae, S. pneumoniae, TET NS, N=46
[9] = Streptococcus pneumoniae, S. pneumoniae, TET S, N=54
[10] = Streptococcus pyogenes, S. pyogenes, TET S, N=44

SMILES: CN(C)[C@@H]1C(O)=C(C(N)=O)C(=O)[C@@]2(O)C(O)=C3C(=O)c4c(O)c5c(c(F)c4C[C@H]3C[C@@H]12)CN(C(C)(C)C)C5 [Compound 102]
- log10 reduction in CFU versus the 72 hour untreated control, IV (H. influenzae HI551; 25 mg/kg IV at 5, 24 and 48 hours): 3.40±0.31 log10
- log10 reduction in CFU versus the 72 hour untreated control, oral (H. influenzae HI551; 100 mg/kg orally at 5, 24, 48 hours (FIG. 4)): 2.93±0.27 log10
- MICs, fold higher against tetracycline resistant isolates relative to tetracycline susceptible isolates [1]: 2-4 fold
- MIC50 [1, 4]: 0.25 µg/mL (≈ 0.472 µM)
- MIC90 [1, 4]: 0.5 µg/mL (≈ 0.944 µM)
- MIC50 [1, 5]: 0.12 µg/mL (≈ 0.227 µM)
- MIC90 [1, 5]: 0.12 µg/mL (≈ 0.227 µM)
- MIC50 ([1]; F. faecalis, TET NS, N=71): 0.5 µg/mL (≈ 0.944 µM)
- MIC90 ([1]; F. faecalis, TET NS, N=71): 1 µg/mL (≈ 1.89 µM)
- MIC50 ([1]; F. faecalis, TET S, N=30): 0.12 µg/mL (≈ 0.227 µM)
- MIC90 ([1]; F. faecalis, TET S, N=30): 0.25 µg/mL (≈ 0.472 µM)
- MIC50 [1, 6]: 0.5 µg/mL (≈ 0.944 µM)
- MIC90 [1, 6]: 0.5 µg/mL (≈ 0.944 µM)
- MIC50 [1, 7]: 0.12 µg/mL (≈ 0.227 µM)
- MIC90 [1, 7]: 0.12 µg/mL (≈ 0.227 µM)
- MIC50 [1, 8]: 0.12 µg/mL (≈ 0.227 µM)
- MIC90 [1, 8]: 0.12 µg/mL (≈ 0.227 µM)
- MIC50 [1, 9]: 0.06 µg/mL (≈ 0.113 µM)
- MIC90 [1, 9]: 0.12 µg/mL (≈ 0.227 µM)
- MIC50 ([1]; Streptococcus pyogenes, S. pyogenes, TET NS, N=6): 0.25 µg/mL (≈ 0.472 µM)
- MIC50 [1, 10]: 0.12 µg/mL (≈ 0.227 µM)
- MIC90 [1, 10]: 0.12 µg/mL (≈ 0.227 µM)
- MIC EC970 TetK (E. coli DH10B EC970 TetK): 0.5
- MICs, fold higher than those of tigecycline [2]: 2-4 fold
- MICs against tetracycline resistant isolates relative to tetracycline susceptible isolates [3]: not notably altered
- MICs relative to tetracycline [3]: comparable MICs relative to tetracycline
- potency against tetracycline resistant isolates [3]: maintained potency
- potency by MIC50/MIC90, Gram-positive relative to Gram-negative pathogens [3]: more potent by MIC50/MIC90 against Gram-positive pathogens relative to Gram-negative pathogens
- potency relative to tetracycline [3]: more potent
- MIC50 ([3]; Acinetobacter lwoffii, n=29, read-out: MIC50): 0.12 µg/mL (≈ 0.227 µM)
- MIC90 ([3]; Acinetobacter lwoffii, n=29, read-out: MIC90): 0.5 µg/mL (≈ 0.944 µM)
- MICs, fold lower than tetracycline ([3]; Acinetobacter lwoffli, S. maltophila, and streptococci): 2-4 fold
- MIC50 ([3]; Enterobacter cloacae, n=29, read-out: MIC50): 4 µg/mL (≈ 7.55 µM)
- MIC90 ([3]; Enterobacter cloacae, n=29, read-out: MIC90): 8 µg/mL (≈ 15.1 µM)
- MIC50 ([3]; Escherichia coli, n=40, read-out: MIC50): 2 µg/mL (≈ 3.78 µM)
- MIC90 ([3]; Escherichia coli, n=40, read-out: MIC90): 4 µg/mL (≈ 7.55 µM)
- MIC50 ([3]; Kiebsielia oxytoca, n=30, read-out: MIC50): 1 µg/mL (≈ 1.89 µM)
- MIC90 ([3]; Kiebsielia oxytoca, n=30, read-out: MIC90): 4 µg/mL (≈ 7.55 µM)
- MIC50 ([3]; Klebsiella aerogenes, Enterobacter aerogenes, n=30, read-out: MIC50): 2 µg/mL (≈ 3.78 µM)
- MIC90 ([3]; Klebsiella aerogenes, Enterobacter aerogenes, n=30, read-out: MIC90): 2 µg/mL (≈ 3.78 µM)
- MIC50 ([3]; Klebsiella pneumoniae, Klebsiella pneumonia, n=27, read-out: MIC50): 4 µg/mL (≈ 7.55 µM)
- MIC90 ([3]; Klebsiella pneumoniae, Klebsiella pneumonia, n=27, read-out: MIC90): 16 µg/mL (≈ 30.2 µM)
- MIC50 ([3]; Morganella morganii, n=30, read-out: MIC50): 8 µg/mL (≈ 15.1 µM)
- MIC90 ([3]; Morganella morganii, n=30, read-out: MIC90): 16 µg/mL (≈ 30.2 µM)
- MIC50 ([3]; Proteus vulgaris, n=29, read-out: MIC50): 8 µg/mL (≈ 15.1 µM)
- MIC90 ([3]; Proteus vulgaris, n=29, read-out: MIC90): > 16 µg/mL
- MIC50 ([3]; Salmonella species, n=30): 2 µg/mL (≈ 3.78 µM)
- MIC90 ([3]; Salmonella species, n=30): 2 µg/mL (≈ 3.78 µM)
- MIC50 ([3]; Serratia marcescens, n=30, read-out: MIC50): 4 µg/mL (≈ 7.55 µM)
- MIC90 ([3]; Serratia marcescens, n=30, read-out: MIC90): 8 µg/mL (≈ 15.1 µM)
- MIC50 ([3]; Shigella species, n=30, read-out: MIC50): 0.5 µg/mL (≈ 0.944 µM)
- MIC50 ([3]; Staphylococcus aureus, Staphylococcus aureus (MRSA PVL+), n=30, read-out: MIC50): 0.25 µg/mL (≈ 0.472 µM)
- MIC90 ([3]; Staphylococcus aureus, Staphylococcus aureus (MRSA PVL+), n=30, read-out: MIC90): 0.25 µg/mL (≈ 0.472 µM)
- MIC50 ([3]; Staphylococcus aureus, Staphylococcus aureus MRSA (includes MRSA PVL+ group), n=105, read-out: MIC50): 0.5 µg/mL (≈ 0.944 µM)
- MIC90 ([3]; Staphylococcus aureus, Staphylococcus aureus MRSA (includes MRSA PVL+ group), n=105, read-out: MIC90): 2 µg/mL (≈ 3.78 µM)
- MIC50 ([3]; Stenotrophomonas maltophilia, n=29, read-out: MIC50): 0.5 µg/mL (≈ 0.944 µM)
- MIC90 ([3]; Stenotrophomonas maltophilia, n=29, read-out: MIC90): 2 µg/mL (≈ 3.78 µM)
- MIC50 ([3]; Streptococcus anginosus, n=20, read-out: MIC50): 0.06 µg/mL (≈ 0.113 µM)
- MIC90 ([3]; Streptococcus anginosus, n=20, read-out: MIC90): 0.25 µg/mL (≈ 0.472 µM)
- MIC50 ([3]; Streptococcus intermedius, n=30, read-out: MIC50): 0.12 µg/mL (≈ 0.227 µM)
- MIC90 ([3]; Streptococcus intermedius, n=30, read-out: MIC90): 0.12 µg/mL (≈ 0.227 µM)
- MIC50 ([3]; Streptococcus mitis, n=29, read-out: MIC50): 0.12 µg/mL (≈ 0.227 µM)
- MIC90 ([3]; Streptococcus mitis, n=29, read-out: MIC90): 0.25 µg/mL (≈ 0.472 µM)
- MIC50 ([3]; Streptococcus sanguis, n=18, read-out: MIC50): 0.06 µg/mL (≈ 0.113 µM)
- MIC90 ([3]; Streptococcus sanguis, n=18, read-out: MIC90): 0.12 µg/mL (≈ 0.227 µM)
- MICs, fold higher than those of tigecycline ([3]; evaluated Gram-negative and Gram-positive pathogens, generally): 2-4 fold
